The text below walks through data of paper PMC3063827, “Myosin-cross-reactive antigen (MCRA) protein from Bifidobacterium breve is a FAD-dependent fatty acid hydratase which has a function in stress protection” (BMC Biochemistry, 2011).

In this assay the target is T1, MCRA (myosin-cross-reactive antigen; FAD-dependent fatty acid hydratase) (Bifidobacterium breve, UniProt F1CWI2).
T1 construct: 1878 bp gene), N-terminal 6x His tag, pET28 (pBBI2), E. coli BL21 Star, HisTrap purified, ~66 kDa on SDS-PAGE; primers begin at MYYSSGNYE
T1 sequence (F1CWI2 1-625): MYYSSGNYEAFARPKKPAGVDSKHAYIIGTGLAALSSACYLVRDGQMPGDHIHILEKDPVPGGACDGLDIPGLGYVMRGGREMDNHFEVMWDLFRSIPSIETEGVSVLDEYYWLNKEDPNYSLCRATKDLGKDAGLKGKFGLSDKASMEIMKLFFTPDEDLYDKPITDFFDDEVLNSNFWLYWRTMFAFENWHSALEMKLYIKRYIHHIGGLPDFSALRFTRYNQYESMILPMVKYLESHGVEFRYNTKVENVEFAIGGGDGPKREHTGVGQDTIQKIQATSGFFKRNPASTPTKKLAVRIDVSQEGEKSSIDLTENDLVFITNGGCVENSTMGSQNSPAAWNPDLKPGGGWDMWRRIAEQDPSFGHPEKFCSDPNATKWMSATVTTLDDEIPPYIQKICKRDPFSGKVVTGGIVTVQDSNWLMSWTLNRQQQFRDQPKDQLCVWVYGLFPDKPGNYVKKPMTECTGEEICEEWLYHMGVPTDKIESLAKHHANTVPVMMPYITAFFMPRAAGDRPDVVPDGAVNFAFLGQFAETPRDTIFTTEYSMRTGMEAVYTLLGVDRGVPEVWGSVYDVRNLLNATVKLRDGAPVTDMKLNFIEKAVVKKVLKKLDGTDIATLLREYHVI
The assay is described as follows: UV-Vis absorption spectrum of purified protein and of supernatant after heat denaturation. In kind it is binding. To be noted: non-covalent, co-purified; flavin-like maxima ~450 and 370 nm; FAD identity rests on spectrum and analogy to S. pyogenes MCRA (FMN also run as reference).

Take `Cc1cc2nc3c(=O)[nH]c(=O)nc-3n(C[C@H](O)[C@H](O)[C@H](O)COP(=O)(O)OP(=O)(O)OC[C@H]3O[C@@H](n4cnc5c(N)ncnc54)[C@H](O)[C@@H]3O)c2cc1C` [FAD]: the “UV-Vis absorption spectrum of purified protein and of supernatant after heat den” value was “flavin cofactor is released in the solution upon protein denaturation by heat”.
